Consider three molecules from ChEMBL document CHEMBL2321680, “High-Throughput Selectivity Assays for Small-Molecule Inhibitors of β-Catenin/T-Cell Factor Protein-Protein Interactions” (ACS Med Chem Lett, 2013).

Molecules are shown by their SMILES.

Test [1] deals with T1, TCF4/beta-catenin (Homo sapiens, UniProt P35222+Q9NQB0). In words: Inhibition of human […]/Tcf4 interaction after 1 hr by fluorescence polarization assay. It is filed as protein-complex assay.
The species entered for test [2] is Homo sapiens. Kind of test: Selectivity ratio of Ki for human […]/APC-R3 interaction to Ki for human […]/Tcf4 interaction by fluorescence polarization assay.
Test [3] is filed under the species Homo sapiens. Kind of test: Selectivity ratio of Ki for human […]/E-cadherin interaction to Ki for human […]/Tcf4 interaction by fluorescence polarization assay.
For test [4], the species on record is Homo sapiens. Kind of test: Selectivity ratio of Ki for human […]/APC-R3 interaction to Ki for human […]/Tcf4 interaction by alphascreen assay.
Test [5] is filed under the species Homo sapiens. Kind of test: Selectivity ratio of Ki for human […]/E-cadherin interaction to Ki for human […]/Tcf4 interaction by alphascreen assay.
Test [6] addresses T1, TCF4/beta-catenin. Kind of test: Inhibition of human beta-catenin/Tcf4 interaction after 1 hr by alphascreen assay.
The target of test [7] is Catenin beta-1/Adenomatous polyposis coli protein (Homo sapiens). Kind of test: Inhibition of human beta-catenin/APC-R3 interaction after 1 hr by alphascreen assay.
In test [8] the target is Catenin beta-1/Cadherin-1 (Homo sapiens). Kind of test: Inhibition of human beta-catenin/E-cadherin interaction after 1 hr by alphascreen assay.
Test [9] concerns the target Catenin beta-1/Adenomatous polyposis coli protein (Homo sapiens). Kind of test: Inhibition of human beta-catenin/APC-R3 interaction after 1 hr by fluorescence polarization assay.
The target in test [10] is Catenin beta-1/Cadherin-1 (Homo sapiens). In words: Inhibition of human beta-catenin/E-cadherin interaction after 1 hr by fluorescence polarization assay.

T1 sequence (P35222 whole entry): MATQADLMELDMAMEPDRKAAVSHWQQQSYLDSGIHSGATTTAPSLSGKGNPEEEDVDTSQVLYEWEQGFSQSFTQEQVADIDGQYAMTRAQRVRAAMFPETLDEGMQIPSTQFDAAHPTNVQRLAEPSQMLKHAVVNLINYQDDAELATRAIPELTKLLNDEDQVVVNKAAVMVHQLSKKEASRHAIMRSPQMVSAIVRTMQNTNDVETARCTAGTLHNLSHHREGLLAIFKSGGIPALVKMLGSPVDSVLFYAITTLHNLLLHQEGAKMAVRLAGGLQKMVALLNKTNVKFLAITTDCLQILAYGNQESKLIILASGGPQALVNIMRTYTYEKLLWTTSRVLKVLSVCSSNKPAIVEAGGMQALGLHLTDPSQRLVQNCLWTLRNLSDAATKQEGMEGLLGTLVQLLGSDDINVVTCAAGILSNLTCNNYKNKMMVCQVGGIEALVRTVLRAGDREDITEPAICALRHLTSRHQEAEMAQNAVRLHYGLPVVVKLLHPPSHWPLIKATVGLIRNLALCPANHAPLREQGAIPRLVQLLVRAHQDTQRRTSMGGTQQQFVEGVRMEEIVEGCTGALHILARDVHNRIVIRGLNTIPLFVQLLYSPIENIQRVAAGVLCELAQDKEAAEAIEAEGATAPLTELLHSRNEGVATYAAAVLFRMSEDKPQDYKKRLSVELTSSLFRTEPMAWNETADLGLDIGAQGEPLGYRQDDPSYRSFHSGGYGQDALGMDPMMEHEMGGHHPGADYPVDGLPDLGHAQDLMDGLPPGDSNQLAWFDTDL
T1 sequence (Q9NQB0 whole entry): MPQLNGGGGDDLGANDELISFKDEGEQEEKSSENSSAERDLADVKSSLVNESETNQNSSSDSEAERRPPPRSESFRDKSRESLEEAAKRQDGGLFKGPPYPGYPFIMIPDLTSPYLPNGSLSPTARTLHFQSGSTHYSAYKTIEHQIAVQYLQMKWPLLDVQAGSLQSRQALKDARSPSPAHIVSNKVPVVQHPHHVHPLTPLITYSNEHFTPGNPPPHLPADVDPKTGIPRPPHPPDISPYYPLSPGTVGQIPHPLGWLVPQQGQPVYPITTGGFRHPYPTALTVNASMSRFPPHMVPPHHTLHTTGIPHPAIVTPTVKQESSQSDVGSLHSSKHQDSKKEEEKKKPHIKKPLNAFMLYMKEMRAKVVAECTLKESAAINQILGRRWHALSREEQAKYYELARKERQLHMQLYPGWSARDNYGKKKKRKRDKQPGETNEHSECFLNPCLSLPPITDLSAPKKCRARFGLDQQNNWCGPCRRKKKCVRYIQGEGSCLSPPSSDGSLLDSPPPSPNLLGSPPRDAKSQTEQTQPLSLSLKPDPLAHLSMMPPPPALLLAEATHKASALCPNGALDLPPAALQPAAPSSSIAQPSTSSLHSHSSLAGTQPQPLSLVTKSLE

For `COc1c(C[C@@H](C)OC(=O)Oc2ccc(O)cc2)c2c3c(C[C@@H](C)OC(=O)c4ccccc4)c(OC)c(=O)c4c(O)cc(OC)c(c5c(OC)cc(O)c(c1=O)c52)c43` [CALPHOSTIN C], in test [1], affinity was put at a Ki of 18 µM.
As for `C=CCN1C(=O)/C(=N\NC(=O)C(=O)Nc2cccc(C(=O)O)c2)c2ccccc21`, the Ratio Ki in [2] amounted to 25; in [3], 16.3; in test [4], 10.5; in test [5] it was 3.3. Also, the Ki in [1] came to 16 µM; in test [6], 21 µM; in test [7] it was 220 µM; in test [8] it was 68 µM; in test [9], 400 µM; in test [10], 260 µM.
Consider `COc1cccc(/C=C2/SC(=S)N(CCC(=O)O)C2=O)c1OC`, for which the Ratio Ki in test [4] was determined as 3.8; in test [5], 4.8. Besides, the figures for the inhibitory constant (Ki) in test [6], in test [7] and in test [8] were 29 µM, 110 µM and 140 µM, respectively.
